This assay has as its target Tyrosine-protein kinase BTK (Homo sapiens, UniProt Q06187). The experiment in a line: BTK Inhibitory Activity: With regard to the setting of the conditions for a method for measuring the inhibitory activity of a compound against BTK kinase activity in vitro, it is described in the consumable reagent supplies price list for LabChip (registered trademark) series of PerkinElmer, Inc. that FL-PEPTIDE 2 corresponds to a substrate peptide for the measurement of BTK kinase activity. Therefore, FL-PEPTIDE 2 was used as a substrate. The purified recombinant human BTK protein used in the test was purchased from Carna Biosciences, Inc.With regard to the measurement of the inhibitory activity of the compounds, firstly, the compounds of the present invention were diluted stepwise with dimethyl sulfoxide (DMSO). Subsequently, BTK protein, a substrate peptide (final concentration was 1 μM), magnesium chloride (final concentration was 10 mM), ATP (final concentration was 45 μM), and a DMSO solution of the compounds of the present invention (final concentration of DMSO was 5%) were added to a buffer solution for kinase reaction (20 mM HEPES (pH 7.5), 2 mM dithiotheitol, 0.01% Triton X-100), and after the solution was incubated for 40 minutes at 25° C., a kinase reaction was carried out. The reaction was terminated by adding EDTA thereto in order to obtain a final concentration of 30 mM. […].

Each structure is given as a SMILES string.

As usually defined, the IC50 is the midpoint of a concentration-inhibition curve.

Tyrosine-protein kinase BTK, sequence (Q06187 whole entry): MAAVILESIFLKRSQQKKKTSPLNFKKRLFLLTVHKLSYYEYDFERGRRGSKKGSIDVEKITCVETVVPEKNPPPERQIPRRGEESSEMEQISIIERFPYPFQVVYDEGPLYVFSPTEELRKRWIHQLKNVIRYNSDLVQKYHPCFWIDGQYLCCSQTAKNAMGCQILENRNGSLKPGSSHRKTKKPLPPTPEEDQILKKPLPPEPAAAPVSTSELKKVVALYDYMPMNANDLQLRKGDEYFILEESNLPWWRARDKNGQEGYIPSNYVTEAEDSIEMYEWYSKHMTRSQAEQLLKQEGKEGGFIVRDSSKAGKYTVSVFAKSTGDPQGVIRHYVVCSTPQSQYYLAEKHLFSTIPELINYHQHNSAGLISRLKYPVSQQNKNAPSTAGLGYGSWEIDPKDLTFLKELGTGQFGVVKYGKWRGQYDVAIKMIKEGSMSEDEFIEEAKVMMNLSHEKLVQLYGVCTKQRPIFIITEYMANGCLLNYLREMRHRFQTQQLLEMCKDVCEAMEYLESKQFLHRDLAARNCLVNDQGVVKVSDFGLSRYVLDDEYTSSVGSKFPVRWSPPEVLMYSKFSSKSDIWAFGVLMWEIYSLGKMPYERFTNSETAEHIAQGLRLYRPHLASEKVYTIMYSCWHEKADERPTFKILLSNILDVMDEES

`C=CC(=O)N1CC[C@@H](n2nc(C(=O)Nc3nc4cc(-c5ccccc5)ccc4o3)c3c(N)ncnc32)C1`: the IC50 was 0.442 nM.

The record behind these values is ChEMBL document CHEMBL5725787, “Fused pyrimidine compound or salt thereof” (2017).
